Laboratory results: PMC9095466 (Nature, 2022)
Like-named read-outs stand apart in the source and are kept apart here.

Legend:
Assay in all cases: microbe, parasite or virus in culture
Assay type in all cases: cell-based
[1] = system: SARS-CoV-2 P.1 (Gamma); conditions: Calu-3 cells, n = 4
[2] = system: SARS-CoV-2 lineage B strain (VIDO); conditions: Severe acute respiratory syndrome coronavirus 2, 72 h; Calu-3 cells, Fig. 3d, n = 4; read-out: EC50, dsRNA staining, Variant B (VIDO-01)
[3] = system: SARS-CoV-2 B.1.1.7 (Alpha); conditions: Calu-3 cells, n = 4
[4] = system: SARS-CoV-2 B.1.351 (Beta); conditions: Calu-3 cells, n = 4
[5] = system: SARS-CoV-2 B.1.617.2 (Delta); conditions: Calu-3 cells, n = 4

CS(=O)(=O)NC(CCC(N)=O)C(=O)NC(Cc1ccccc1)C(=O)NC(CCCNC(=N)N)C(=O)c1nc2ccccc2s1 (stereo not drawn) [Compound N-0385, Ms-QFR-kbt]
EC50 ([1]; Severe acute respiratory syndrome coronavirus 2, 72 h, Fig. 3d, read-out: EC50, dsRNA staining, Variant P.1 (Gamma)): 0.0054 µM | EC50 ([1]; Severe acute respiratory syndrome coronavirus 2, Fig. 3c, read-out: EC50, N staining, Variant P.1 (Gamma)): 0.0065 µM | EC50 [2]: 0.0143 µM | EC50 ([3]; Severe acute respiratory syndrome coronavirus 2, 72 h, Fig. 3d, read-out: EC50, dsRNA staining, Variant B.1.1.7 (Alpha)): 0.0026 µM | EC50 ([3]; Severe acute respiratory syndrome coronavirus 2, Fig. 3c, read-out: EC50, N staining, Variant B.1.1.7 (Alpha)): 0.0021 µM | EC50 ([4]; Severe acute respiratory syndrome coronavirus 2, 72 h, Fig. 3d, read-out: EC50, dsRNA staining, Variant B.1.351 (Beta)): 0.022 µM | EC50 ([4]; Severe acute respiratory syndrome coronavirus 2, Fig. 3c, read-out: EC50, N staining, Variant B.1.351 (Beta)): 0.0128 µM | EC50 ([5]; Severe acute respiratory syndrome coronavirus 2, 72 h, Fig. 3d, read-out: EC50, dsRNA staining, Variant B.1.617.2 (Delta)): 0.0265 µM | EC50 ([5]; Severe acute respiratory syndrome coronavirus 2, Fig. 3c, read-out: EC50, N staining, Variant B.1.617.2 (Delta)): 0.0139 µM
